Experimental data as given in publication PMC4434572, “Identification of novel drugs to target dormant micrometastases” (BMC Cancer, 2015).
Entries after “also recorded” stand apart in the source; their conditions may differ. Read-outs that look alike come from different tables or passages of the source.

What was measured:
[1] = test system: protein tyrosine phosphatase (PTP); set-up: method as in PMID 9575179; details: cited from earlier work
[2] = test system: cancer cells on SISgel or plastic; assay: Activity of leads and analogs on cancer cells grown on plastic vs SISgel (cell line not stated); assay type: cell-based
Procedure: The NCI library is no longer available in the form used here, but how it was constructed is described (http://dtp.nci.nih.gov/branches/dscb/diversity_explanation.html). The ChemBridge library is a subset (Set Code NM1024) of the full 50,000 compound library (http://www.chembridge.com/screening_libraries/diversity_libraries/). Compounds were diluted to 100 μM before use. SISgel was prepared as described previously from powdered porcine small intestine submucosa obtained from Cook Biotech (W. Lafayette, IN). It is a natural product that is used extensively in tissue engineering as a bioscaffold. J82 bladder cancer cells and other cell lines were obtained from the ATCC (Bethesda, MD). […] Efficacy in vitro was assessed by plating 30,000 cells in 50 μL of high glucose DMEM with penicillin-streptomycin and 10 % fetal calf serum on SISgel in a 96-well plate containing 50 μL of gelled SISgel per well. Cells were allowed to attach and assume the SISgel phenotype for 48 h. A matching plate without SISgel was prepared 24 h later by pipetting 3,000 cells in 100 μL of high glucose DMEM with penicillin-streptomycin and 10 % fetal calf serum into each well of 96 well plate. The cells were allowed to attach and grow for 24 h. […] The cells were exposed to drug in fresh medium for 48 h, at which time the cell number was determined using the CFDA-AM cellular esterase proliferation assay (cat. #C1354, Life Technologies). For screening the results are reported as the ratio of cell count of cells on the plastic surface to the cell count on SISgel. An initial difference of 1.5 fold identified potential hits. All potential hits were confirmed in triplicate. […] Data were analyzed using nonlinear regression to a sigmoid curve with Prism 4 (GraphPad Software, Inc., LaJolla, CA). […]

J82 (bladder) = assay: Proliferation EC50 on SISgel vs monolayer; assay type: cell-based; details: n = 6-8
Excerpt: (§1) The libraries were obtained from the NCI (Diversity Library I) comprised of 2,918 compounds and a 10,000 compound diversity library from ChemBridge, Inc. (DiverSet-EXP). The NCI library is no longer available in the form used here, but how it was constructed is described (http://dtp.nci.nih.gov/branches/dscb/diversity_explanation.html). The ChemBridge library is a subset (Set Code NM1024) of the full 50,000 compound library (http://www.chembridge.com/screening_libraries/diversity_libraries/). Compounds were diluted to 100 μM before use. SISgel was prepared as described previously from powdered porcine small intestine submucosa obtained from Cook Biotech (W. Lafayette, IN). It is a natural product that is used extensively in tissue engineering as a bioscaffold. J82 bladder cancer cells and other cell lines were obtained from the ATCC (Bethesda, MD). The basic principle is that cells grown on any ECM are, in general, expected to show higher resistance to anticancer compounds than when grown on plastic. Therefore, compounds that show a higher activity toward cancer cells on a normal ECM than on a plastic surface would be candidates to target suppressed, micrometastatic cells. Efficacy in vitro was assessed by plating 30,000 cells in 50 μL of high glucose DMEM with penicillin-streptomycin and 10 % fetal calf serum on SISgel in a 96-well plate containing 50 μL of gelled SISgel per well. Cells were allowed to attach and assume the SISgel phenotype for 48 h. A matching plate without SISgel was prepared 24 h later by pipetting 3,000 cells in 100 μL of high glucose DMEM with penicillin-streptomycin and 10 % fetal calf serum into each well of 96 well plate. The cells were allowed to attach and grow for 24 h. These numbers of cells gave approximately equal replication rates at the time drug was added for cells grown on the plastic surface or SISgel as determined by the fraction of S-phase cells identified by flow cytometry. The cells were exposed to drug in fresh medium for 48 h, at which time the cell number was determined using the CFDA-AM cellular esterase proliferation assay (cat. #C1354, Life Technologies). For screening the results are reported as the ratio of cell count of cells on the plastic surface to the cell count on SISgel. An initial difference of 1.5 fold identified potential hits. All potential hits were confirmed in triplicate. Those compounds that replicated were confirmed by a full dose–response study yielding an EC50 using five wells per drug concentration. Data were analyzed using nonlinear regression to a sigmoid curve with Prism 4 (GraphPad Software, Inc., LaJolla, CA). Potential hits that were confirmed by dose–response using J82 were also tested with MDA-MB-435 breast cancer, PC-3 metastatic prostate cancer, Capan1 pancreatic cancer and the J82 bladder cancer cell lines.

MDA-MB-435 cells = assay: Western blot of protein levels after treatment; assay type: cell-based
Procedure: Protein content of selected proteins identified by reversed phase protein array (see supplementary materials) as being involved mechanistically in the response to DT320 was assayed by Western blot as described using the following antibodies. The following antibodies were purchased from Cell Signaling Technology (Beverly, MA) and diluted per manufacturer’s directions: Rabbit mAb Anti-Phospho-AKT (Ser473) (D9E) XP® #4060, Rabbit mAb anti-p38 MAPK (D13E1) XP® #8690, Mouse mAb anti-Phospho-SAPK/JNK (Thr183/Tyr185) (G9) #9255, Rabbit mAb anti-Phospho-CHK1 (Ser345) (133D3) #2348, Rabbit polyclonal anti-Phospho-CHK2 (Thr68) Antibody #2661, Rabbit polyclonal anti-BAX Antibody #2772, Rabbit polyclonal anti-Vinculin Antibody #4650, Mouse mAb anti-Cyclin D1 (DCS6) #2926, Rabbit mAb anti-Cyclin E2 (D52F9) b #3741, […], Mouse mAb anti-Cyclin B1 (V152) #4135, Rabbit mAb anti-cleaved PARP (Asp214) (D64E10) XP® #5625, Rabbit mAb anti-cleaved Caspase-3 (Asp175) (5A1E) #9654, Rabbit mAb anti-Nanog (D73G4), #4903; Rabbit mAb anti-Oct4 (C52G3) #2890; and Rabbit mAb anti-Sox2 (D6D9) #3579. Specificity of each antibody is illustrated on the company’s web page. For negative controls, pre-immune rabbit IgG was used. No signal was detected in the control IgG samples. No intensities or contrast were modified, but the appropriate bands were cut out using PhotoShop to prepare composite gel images.
To elucidate the mechanism of DT310 and DT320, cell cycle analysis and Western blotting was performed. The proteins for Western blot were selected from preliminary results using reverse phase protein array (RPPA) for DT320 and DT321 treated MDA-MB-435 and T24 cells. […] Proteins within these clusters showing the largest differences in protein expression and that were related to known anticancer drug action were confirmed by Western blot. Docetaxel was used as a positive control because it is known to induce a cell cycle arrest and apoptosis signature.

in vivo = details: BALB/c, mouse, ip
4T1 Luc2-GFP cells = assay: Orthotopic 4T1 syngeneic model of triple-negative breast cancer with natural lung metastasis; assay type: in vivo, BALB/c mice
Procedure: 4T1 Luc2-GFP cells (PerkinElmer, Waltham, MA) were cultured in DMEM high glucose media with 2 mM pyruvate, 2 mM glutamine, 2 % Pen/Strep and 10 % Cosmic Calf Serum (Mediatech, Manassas, VA). To prepare cells for injection they were removed from flasks, counted using the TC10 counting system (BioRad, Hercules, CA) and checked for viability. Cells were then washed with PBS, pelleted and taken up at a concentration of 75,000 cells/ml; 100 μl of cell suspension (7,500 cells) was injected subcutaneously (bevel side up) into mammary fat pad #4 of 8 weeks old female BALB/c mice (NCI National Laboratory Frederick/Charles River animal production program). All animals were weighed and tumors were measured using calipers three times weekly. Beginning one week after implantation, which is when micrometastatic cells begin to arrive in the lungs, animals were treated three times per week with intraperitoneal DT310 or DT320 at their NOAEL dose of 75 mg/kg three times week dissolved in saline or by osmotic pump. The osmotic pumps (Alzet #2004) delivered an NOAEL dose of 23.4 and 26.7 μg/h of DT310 and DT320, respectively, for 4 weeks and were implanted as directed subcutaneously posterior to scapulae. Docetaxel was delivered once weekly intraperitoneally at its MTD of 15 mg/kg and doxorubicin delivered once weekly at its MTD of 1 mg/kg in 5 % N-Methyl-2-pyrrolidone, 5 % Solutol HS, and 90 % saline. GFP positive cells were imaged with excitation of GFP emission using a Leica Model Z16 APO fluorescence microscope equipped for a wide field, a large depth of field and 0.57–9.2X zoom capability. GFP-positive objects were counted and scored as to whether they were […], clumps of less than ten cells without a visible vasculature, as determined by co-injection of tetramethylrhodamine labeled dextran (2 million MW).

MDA-MB-435-GFP cells = assay: Flank xenograft model of ECM-suppressed cells co-injected with SISgel; assay type: in vivo, nu/nu mice; details: 75 mg/kg twice weekly; 6 flanks
Procedure: The efficacy of DT320 was assessed using a flank xenograft model of ECM-suppressed cancer cells that we developed, as well as an orthotopic model of “triple-negative” breast cancer. All animal protocols were reviewed and approved by the OUHSC Institutional Animal Care and Use Committee according to criteria established by the NIH Office of Laboratory Animal Welfare, and animals were housed 5 per cage with enrichment (tubes) and wood chips in the AALAC-accredited OUHSC Animal Facility with a 12 h light/dark cycle. Animals had access to water and food ad libatum. Animals were monitored daily by trained facility personnel. In the flank model, GFP-labeled cells were co-injected with SISgel, which produces a suppressed, normalized phenotype that persists after the SISgel is resorbed, but which can re-emerge into active tumor growth after 30–60 days. Animals were all female nu/nu mice (NCI National Laboratory Frederick/Charles River animal production program). An optimized number of 5 × 10^5 GFP-labeled MDA-MB-435 cells in 100 μL DMEM medium, without additives, were mixed with 100 μL of SISgel and were kept on ice until injection to prevent polymerization of the SISgel. […] The cells injected into the flanks remained as a non-growing spot, as assessed by fluorometry of the spots and the lack of mitoses seen in tissue sections, for about 3–5 weeks before some began resuming malignant growth. […]

Capan-1 (pancreatic) = assay: Proliferation EC50 on SISgel vs monolayer; assay type: cell-based; details: Homo sapiens, n = 6-8
Excerpt: as §1

Structure (SMILES): Cc1ccc(C(=O)Nc2ccc(S(=O)(=O)O)c3cc(S(=O)(=O)O)cc(S(=O)(=O)O)c23)cc1NC(=O)c1cccc(NC(=O)Nc2cccc(C(=O)Nc3cc(C(=O)Nc4ccc(S(=O)(=O)O)c5cc(S(=O)(=O)O)cc(S(=O)(=O)O)c45)ccc3C)c2)c1 [Suramin, reference compound]
- PTP inhibition [1]: potent
- SR ([2]; ratio IC50-p/IC50-S): 1.4
- IC50 ([2]; read-out: IC50-S): 226 µM
- IC50 ([2]; read-out: IC50-p): 321 µM

Structure (SMILES): N.N.[Cl][Pt][Cl] [cisplatin, reference compound]
- EC50 (J82 (bladder); J82 monolayer, read-out: EC50 Monolayer): 102 ± 10.2 µM
- EC50 (J82 (bladder); J82 on SISgel, read-out: EC50 SISgel): > 300 µM

Structure (SMILES): CC(=O)O[C@@]12CO[C@@H]1C[C@H](O)[C@@]1(C)C(=O)[C@H](O)C3=C(C)[C@@H](OC(=O)[C@H](O)[C@@H](NC(=O)OC(C)(C)C)c4ccccc4)C[C@@](O)([C@@H](OC(=O)c4ccccc4)[C@H]21)C3(C)C [docetaxel]
- CHK1 expression (MDA-MB-435 cells): neither of the DT compounds nor docetaxel induced CHK1
- Cyclin A1 (CCNA1) expression (MDA-MB-435 cells): sharply down-regulate
- Cyclin D1 (CCND1) expression (MDA-MB-435 cells): down-regulated
- cyclin B1 (CCNB1) expression (MDA-MB-435 cells): down-regulated
- pSAP/JNK expression (MDA-MB-435 cells): not
- pAKT expression (MDA-MB-435 cells; 24 h): did not
- MTD (in vivo): 15 mg/kg
- primary tumor growth (4T1 Luc2-GFP cells; administered i.p. at MTD): little effect
- number of large multicellular micrometastases and vascularized macrometastases to the lung (4T1 Luc2-GFP cells; i.p. or osmotic pump): only minimal effects

Structure (SMILES): Nc1ccn([C@@H]2O[C@H](CO)[C@@H](O)C2(F)F)c(=O)n1 [gemcitabine, reference compound]
- response of suppressed flank xenografts (MDA-MB-435-GFP cells): no response in all six flank xenografts; also recorded: remained present
- EC50 (Capan-1 (pancreatic); Capan-1 monolayer, read-out: EC50 Monolayer): 78.2 ± 9.8 µM
- EC50 (Capan-1 (pancreatic); Capan-1 on SISgel, read-out: EC50 SISgel): 83.1 ± 10.7 µM
